# Measurements from US20120028930A1, “FLUPIRTINE SALTS AND POLYMORPHS” (Bionevia Pharmaceuticals Inc., priority 2010, published 2012).
# Where a name gives a salt, the structure may show the parent alone.
# What was measured:
# [1] = stability towards oxidation and discoloration on storage exposed to air; settings: storage period of 30 days at room temperature, in contrast to other acid addition salts, e.g. maleate and gluconate
# Description: HPLC can be performed after preparation of the salts and repeated after 14 days of storage at room temperature under normal air containing about 21% oxygen.
# HPLC analysis can be performed after isolation and drying of flupirtine sulfonate salts and repeated after 14 days of storage at room temperature under open air.
# Discolouration can be measured using optical comparison with a standard: the RAL scale of colours (see list). The colour changes during the experiment is compared to this standard list and the appropriate value is noted. The intensity is increasing on a scale ranging from 1 to 10. A higher number means more discolouration. The increase in colour intensity is not proportional but qualitative.
# dissolution rate = assay type: physicochemical
# [2] = cited from earlier work
stability towards oxidation and towards discoloration [1],dissolution rate (dissolution rate),Structure (SMILES),solubility in water [2]
substantially improved stability,–,"CC(=O)O.CCOC(=O)Nc1ccc(NCc2ccc(F)cc2)nc1N [flupirtine acetate, 2-amino-3-carbethoxyamino-6-(4-fluoro-benzylamino)-pyridine acetate]",–
–,0.088 [μg/mL]/min,CCOC(=O)Nc1ccc(NCc2ccc(F)cc2)nc1N [flupirtine maleate],insoluble
substantially improved stability,–,"CCC(=O)O.CCOC(=O)Nc1ccc(NCc2ccc(F)cc2)nc1N [flupirtine propionate, 2-amino-3-carbethoxyamino-6-(4-fluoro-benzylamino)-pyridine propionate]",–
substantially improved stability,–,"CCOC(=O)Nc1ccc(NCc2ccc(F)cc2)nc1N.CS(=O)(=O)O [flupirtine mesylate, 2-amino-3-carbethoxyamino-6-(4-fluoro-benzylamino)-pyridine mesylate]",–
